Measurements taken from ChEMBL document CHEMBL4270563, “Neurogenic and neuroprotective donepezil-flavonoid hybrids with sigma-1 affinity and inhibition of key enzymes in Alzheimer's disease” (Eur J Med Chem, 2018).
Activity calls are given as the source filed them. The rule behind the calls is not given here.

Key:
in vitro = details: PAMPA, pH 7.4
Description: Permeability of the compound in pH 7.4 PBS by PAMPA-BBB assay

SH-SY5Y [1] = experiment: Neuroprotective activity against rotenone/oligomycin A-induced mitochondrial oxidative stress in human SH-SY5Y cells at 0.1 uM after 24 hrs by MTT assay relative to control; assay type: functional
SH-SY5Y [2] = experiment: Neuroprotective activity against rotenone/oligomycin A-induced mitochondrial oxidative stress in human SH-SY5Y cells at 0.3 uM after 24 hrs by MTT assay relative to control; assay type: functional
Cholinesterase = Cholinesterase (Homo sapiens, UniProt P06276); experiment: Inhibition of human serum BuChE using butyrylthiocholine as substrate pretreated for 5 mins followed by substrate addition and measured for 5 mins by Ellman's method
SH-SY5Y [3] = experiment: Neuroprotective activity against rotenone/oligomycin A-induced mitochondrial oxidative stress in human SH-SY5Y cells at 1 uM after 24 hrs by MTT assay relative to control; assay type: functional
Homo sapiens [4] = species: Homo sapiens; experiment: Selectivity index, ratio of IC50 for human serum BuChE to IC50 for recombinant human AChE expressed in HEK293 cells; assay type: cell-based
SH-SY5Y [5] = experiment: Neuroprotective activity against rotenone/oligomycin A-induced mitochondrial oxidative stress in human SH-SY5Y cells at 3 uM after 24 hrs by MTT assay relative to control; assay type: functional
Acetylcholinesterase [6] = biological target: T1, Acetylcholinesterase (Homo sapiens, UniProt P22303); experiment: Inhibition of recombinant human AChE expressed in HEK293 cells using acetylthiocholine iodide as substrate pretreated for 5 mins followed by substrate addition and measured for 5 mins by Ellman's method
[7] = biological target: T2, Amine oxidase [flavin-containing] B (Homo sapiens, UniProt P27338); experiment: biochemical; assay type: cell-based
T2 sequence (P27338 whole entry): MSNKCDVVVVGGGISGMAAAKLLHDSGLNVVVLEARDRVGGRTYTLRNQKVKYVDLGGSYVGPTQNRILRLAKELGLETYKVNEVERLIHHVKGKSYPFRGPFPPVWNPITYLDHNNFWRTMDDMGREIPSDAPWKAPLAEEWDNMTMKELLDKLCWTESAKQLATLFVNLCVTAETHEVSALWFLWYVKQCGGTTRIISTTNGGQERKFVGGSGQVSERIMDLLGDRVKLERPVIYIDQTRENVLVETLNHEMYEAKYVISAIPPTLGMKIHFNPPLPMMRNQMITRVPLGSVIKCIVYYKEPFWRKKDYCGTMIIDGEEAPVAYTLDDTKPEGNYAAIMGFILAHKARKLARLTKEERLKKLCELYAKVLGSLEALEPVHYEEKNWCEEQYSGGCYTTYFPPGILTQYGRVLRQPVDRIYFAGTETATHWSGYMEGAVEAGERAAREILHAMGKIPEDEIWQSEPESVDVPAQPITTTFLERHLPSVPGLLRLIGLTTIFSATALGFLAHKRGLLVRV
Description: Inhibition of recombinant human MAO-B expressed in baculovirus infected BTI insect cells using p-tyramine as substrate pretreated for 15 mins followed by substrate addition by horse-radish peroxidase/amplex red-based fluorescence method

[8] = Antioxidant activity assessed as trolox equivalent of AAPH-induced radical scavenging activity pretreated for 15 mins followed by APPH challenge measured every minute for 80 mins by ORAC-FL assay; assay type: functional
[9] = biological target: T3, Amine oxidase [flavin-containing] A (Homo sapiens, UniProt P21397); experiment: Inhibition of recombinant human MAO-A expressed in baculovirus infected BTI insect cells using p-tyramine as substrate pretreated for 15 mins followed by substrate addition by horse-radish peroxidase/amplex red-based fluorescence method
T3 sequence (P21397 whole entry): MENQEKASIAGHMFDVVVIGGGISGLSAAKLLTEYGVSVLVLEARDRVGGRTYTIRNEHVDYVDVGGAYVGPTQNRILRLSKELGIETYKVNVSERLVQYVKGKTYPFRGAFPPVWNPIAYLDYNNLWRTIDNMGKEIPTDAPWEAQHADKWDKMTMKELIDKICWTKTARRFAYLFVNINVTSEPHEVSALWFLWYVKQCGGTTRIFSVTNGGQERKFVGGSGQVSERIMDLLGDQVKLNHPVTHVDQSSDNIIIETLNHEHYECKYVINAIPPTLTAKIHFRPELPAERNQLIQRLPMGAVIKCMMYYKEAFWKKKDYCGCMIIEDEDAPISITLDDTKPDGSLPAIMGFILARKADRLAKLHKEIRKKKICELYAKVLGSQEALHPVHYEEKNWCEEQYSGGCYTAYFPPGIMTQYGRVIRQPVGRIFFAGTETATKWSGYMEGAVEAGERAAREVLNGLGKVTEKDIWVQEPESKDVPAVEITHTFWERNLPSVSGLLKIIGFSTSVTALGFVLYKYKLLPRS

[10] = biological target: T4, Sigma intracellular receptor 2 (Rattus norvegicus, UniProt Q5U3Y7); experiment: Displacement of [3H]DTG from sigma2 receptor in rat liver membranes by liquid scintillation counting method; assay type: cell membranes, Membrane
T4 sequence (Q5U3Y7 whole entry): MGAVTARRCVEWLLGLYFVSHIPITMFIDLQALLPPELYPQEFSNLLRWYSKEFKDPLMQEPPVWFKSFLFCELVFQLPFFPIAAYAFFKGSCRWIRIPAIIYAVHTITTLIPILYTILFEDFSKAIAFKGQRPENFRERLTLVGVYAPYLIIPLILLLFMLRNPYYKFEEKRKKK

[11] = biological target: Sigma non-opioid intracellular receptor 1 (Cavia porcellus, UniProt Q60492); experiment: Displacement of (+)-[3H]pentazocine from guinea pig brain membrane sigma1 receptor by liquid scintillation counting method
[12] = Antioxidant activity assessed as trolox equivalent of AAPH-induced radical scavenging activity at 10 uM pretreated for 15 mins followed by APPH challenge measured every minute for 80 mins by ORAC-FL assay; assay type: functional
[13] = biological target: T5, Polyunsaturated fatty acid 5-lipoxygenase (Homo sapiens, UniProt P09917); experiment: Inhibition of human 5-lipoxygenase using arachidonic acid as substrate pretreated for 10 mins followed by substrate and ATP addition and measured after 20 mins by H2DCFDA probe based fluorescence assay
T5 sequence (P09917 whole entry): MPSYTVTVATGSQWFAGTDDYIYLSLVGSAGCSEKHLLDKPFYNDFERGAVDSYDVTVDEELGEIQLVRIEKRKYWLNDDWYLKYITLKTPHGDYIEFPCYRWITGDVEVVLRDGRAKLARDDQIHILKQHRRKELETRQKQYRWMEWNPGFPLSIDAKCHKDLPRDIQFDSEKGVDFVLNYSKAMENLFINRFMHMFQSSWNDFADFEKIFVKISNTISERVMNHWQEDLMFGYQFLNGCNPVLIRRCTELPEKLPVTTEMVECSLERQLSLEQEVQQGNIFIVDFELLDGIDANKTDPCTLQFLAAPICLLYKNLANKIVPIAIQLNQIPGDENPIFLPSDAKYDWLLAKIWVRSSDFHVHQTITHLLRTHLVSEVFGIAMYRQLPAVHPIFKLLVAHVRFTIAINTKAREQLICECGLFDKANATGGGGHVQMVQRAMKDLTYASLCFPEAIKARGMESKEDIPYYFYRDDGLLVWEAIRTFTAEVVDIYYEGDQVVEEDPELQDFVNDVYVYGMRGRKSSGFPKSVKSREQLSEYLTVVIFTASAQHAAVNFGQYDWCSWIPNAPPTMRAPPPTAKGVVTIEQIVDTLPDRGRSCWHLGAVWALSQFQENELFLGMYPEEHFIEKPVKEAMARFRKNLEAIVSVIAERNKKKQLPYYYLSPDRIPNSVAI

Acetylcholinesterase [14] = biological target: T1, Acetylcholinesterase; experiment: Inhibition of recombinant human AChE expressed in HEK293 cells using varying levels of acetylthiocholine iodide as substrate by Lineweaver-burk plot analysis
Homo sapiens [15] = species: Homo sapiens; experiment: Selectivity ratio of IC50 for recombinant human MAO-B expressed in baculovirus infected BTI insect cells to IC50 for recombinant human MAO-A expressed in baculovirus infected BTI insect cells
[16] = Selectivity ratio of Ki for displacement of [3H]DTG from sigma2 receptor in rat liver membranes to Ki for displacement of (+)-[3H]pentazocine from guinea pig brain membrane sigma1 receptor; assay type: cell membranes
Mus musculus [17] = species: Mus musculus; experiment: Neurogenic activity in C57BL/6 mouse subgranular zone neural stem cell-derived neurospheres assessed as differentiation of neural stem cells at 10 uM treated for 7 days followed by poly-L-lysine addition and measured after 3 days by DAPI staining based confocal microscopic analysis; assay type: functional
Mus musculus [18] = species: Mus musculus; experiment: Neurogenic activity in C57BL/6 mouse subgranular zone neural stem cell-derived neurospheres assessed as neuronal maturation at 10 uM treated for 7 days followed by poly-L-lysine addition and measured after 3 days by DAPI staining based confocal microscopic analysis; assay type: functional
SH-SY5Y [19] = experiment: Neuroprotective activity against rotenone/oligomycin A-induced mitochondrial oxidative stress in human SH-SY5Y cells at 10 nM after 24 hrs by MTT assay relative to control; assay type: functional
Homo sapiens [20] = species: Homo sapiens; experiment: Selectivity ratio of IC50 for recombinant human MAO-A expressed in baculovirus infected BTI insect cells to IC50 for recombinant human MAO-B expressed in baculovirus infected BTI insect cells
[21] = biological target: T6, Polyunsaturated fatty acid 5-lipoxygenase (Homo sapiens) (UniProt P09917); experiment: Inhibition of human 5-lipoxygenase at 10 uM using arachidonic acid as substrate pretreated for 10 mins followed by substrate and ATP addition and measured after 20 mins by […] probe based fluorescence assay relative to control
T6 sequence (whole entry): T5 sequence (P09917 whole entry)

Sequence of Sigma non-opioid intracellular receptor 1 (Q60492 whole entry): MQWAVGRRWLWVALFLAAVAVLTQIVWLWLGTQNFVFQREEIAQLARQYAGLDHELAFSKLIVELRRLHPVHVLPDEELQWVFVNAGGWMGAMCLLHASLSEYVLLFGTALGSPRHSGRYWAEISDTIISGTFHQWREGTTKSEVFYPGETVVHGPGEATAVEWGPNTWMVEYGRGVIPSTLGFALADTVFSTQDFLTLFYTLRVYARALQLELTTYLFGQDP
Sequence of Cholinesterase (P06276 whole entry): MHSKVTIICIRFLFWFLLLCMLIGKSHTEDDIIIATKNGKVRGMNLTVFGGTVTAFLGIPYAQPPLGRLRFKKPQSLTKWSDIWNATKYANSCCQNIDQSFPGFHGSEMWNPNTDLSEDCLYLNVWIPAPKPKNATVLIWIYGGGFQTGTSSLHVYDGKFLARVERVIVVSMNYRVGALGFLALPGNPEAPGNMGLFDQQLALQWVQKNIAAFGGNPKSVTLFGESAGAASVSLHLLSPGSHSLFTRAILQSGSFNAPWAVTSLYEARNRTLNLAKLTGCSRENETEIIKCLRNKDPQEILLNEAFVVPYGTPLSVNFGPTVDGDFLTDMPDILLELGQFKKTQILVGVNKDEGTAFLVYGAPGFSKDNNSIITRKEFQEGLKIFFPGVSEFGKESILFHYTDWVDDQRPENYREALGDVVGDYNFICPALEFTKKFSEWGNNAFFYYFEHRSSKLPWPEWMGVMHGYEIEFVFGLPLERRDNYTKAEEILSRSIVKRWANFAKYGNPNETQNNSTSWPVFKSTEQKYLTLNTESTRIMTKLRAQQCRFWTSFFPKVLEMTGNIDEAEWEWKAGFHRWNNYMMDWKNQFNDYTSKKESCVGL
T1 sequence (P22303 whole entry): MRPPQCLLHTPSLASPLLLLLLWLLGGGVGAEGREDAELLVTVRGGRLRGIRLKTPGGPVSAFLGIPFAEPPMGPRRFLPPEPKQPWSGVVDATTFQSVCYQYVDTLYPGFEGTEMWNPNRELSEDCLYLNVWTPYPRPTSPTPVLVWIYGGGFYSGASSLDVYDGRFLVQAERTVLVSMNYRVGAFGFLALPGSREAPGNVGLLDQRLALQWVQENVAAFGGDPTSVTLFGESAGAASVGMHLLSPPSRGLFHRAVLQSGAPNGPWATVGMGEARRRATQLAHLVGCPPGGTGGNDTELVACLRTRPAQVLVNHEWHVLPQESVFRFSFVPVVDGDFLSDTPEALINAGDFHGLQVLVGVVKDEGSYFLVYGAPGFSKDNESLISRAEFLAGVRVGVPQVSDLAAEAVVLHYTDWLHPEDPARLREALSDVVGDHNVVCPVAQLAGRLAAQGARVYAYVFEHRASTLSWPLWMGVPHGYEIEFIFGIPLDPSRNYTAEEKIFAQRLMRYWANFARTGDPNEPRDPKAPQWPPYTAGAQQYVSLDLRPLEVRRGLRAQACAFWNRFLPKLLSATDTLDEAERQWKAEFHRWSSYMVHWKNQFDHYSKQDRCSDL

## COc1ccc2oc(C(=O)NC3CCN(Cc4ccccc4)CC3)cc(=O)c2c1
In vitro
  Papp: 7.7 ×10⁻⁶ cm/s
SH-SY5Y [1]
  Activity: 9.8%
SH-SY5Y [2]
  Activity: 13.9%
Cholinesterase
  IC50: > 10000 nM
SH-SY5Y [3]
  Activity: 14.6%
Homo sapiens [4]
  Ratio IC50: > 10
SH-SY5Y [5]
  Activity: 8.6%
Acetylcholinesterase [6]
  IC50: 970 nM

## COc1cc2oc(C(=O)OCC3CCN(Cc4ccccc4)CC3)cc(=O)c2cc1OC
In vitro
  Papp: 3.2 ×10⁻⁶ cm/s
SH-SY5Y [1]
  Activity: 19.4%
SH-SY5Y [2]
  Activity: 19.6%
Cholinesterase
  IC50: > 10000 nM
SH-SY5Y [3]
  Activity: 6.8%
Homo sapiens [4]
  Ratio IC50: > 33
SH-SY5Y [5]
  Activity: 12.4%
Acetylcholinesterase [6]
  IC50: 300 nM

## O=C(NCCC1CCN(Cc2ccccc2)CC1)c1cc(=O)c2cc(O)ccc2[nH]1
In vitro
  Papp: 5.1 ×10⁻⁶ cm/s
SH-SY5Y [1]
  Activity: 18.6%
SH-SY5Y [2]
  Activity: 13.7%
[7]
  IC50: 59900 nM
[8]
  Activity (umolequiv/umol): 1.4
Cholinesterase
  IC50: 9880 nM
SH-SY5Y [3]
  Activity: 17.4%
Homo sapiens [4]
  Ratio IC50: 33
SH-SY5Y [5]
  Activity: 29.7%
[9]
  IC50: 51300 nM
Acetylcholinesterase [6]
  IC50: 300 nM

## O=C(NCCC1CCN(Cc2ccccc2)CC1)c1cc(=O)c2cc([N+](=O)[O-])ccc2o1
In vitro
  Papp: 8.2 ×10⁻⁶ cm/s
[10]
  Ki: 287 nM
[7]
  IC50: > 100000 nM
[11]
  Ki: 0.98 nM
[12]
  Activity: inactive
Cholinesterase
  IC50: 9300 nM
Homo sapiens [4]
  Ratio IC50: 443
[13]
  IC50: 9800 nM
Acetylcholinesterase [14]
  Ki: 12 nM
Homo sapiens [15]
  Ratio IC50: > 5
[9]
  IC50: 20500 nM
[16]
  Ratio Ki: 293
Acetylcholinesterase [6]
  IC50: 21 nM

## COc1cc2oc(C(=O)NCCC3CCN(Cc4ccccc4)CC3)cc(=O)c2cc1OC
In vitro
  Papp: 5.9 ×10⁻⁶ cm/s
SH-SY5Y [1]
  Activity: 11.5%
[10]
  Ki: 239 nM
SH-SY5Y [2]
  Activity: 18.1%
[7]
  IC50: 5200 nM
[11]
  Ki: 37.4 nM
[12]
  Activity: inactive
Cholinesterase
  IC50: > 10000 nM
SH-SY5Y [3]
  Activity: 17.1%
Mus musculus [17]
  Activity: Active
Homo sapiens [4]
  Ratio IC50: > 217
SH-SY5Y [5]
  Activity: 22.4%
[13]
  IC50: 74300 nM
Acetylcholinesterase [14]
  Ki: 39 nM
Mus musculus [18]
  Activity: Active
[9]
  IC50: 15300 nM
[16]
  Ratio Ki: 6
Acetylcholinesterase [6]
  IC50: 46 nM

## COc1cc2oc(C(=O)NC3CCN(Cc4ccccc4)CC3)cc(=O)c2cc1OC
In vitro
  Papp: 8.1 ×10⁻⁶ cm/s
SH-SY5Y [1]
  Activity: 5.7%
SH-SY5Y [2]
  Activity: 18%
Cholinesterase
  IC50: > 10000 nM
SH-SY5Y [3]
  Activity: 12.3%
Homo sapiens [4]
  Ratio IC50: > 15
SH-SY5Y [5]
  Activity: 12.6%
Acetylcholinesterase [6]
  IC50: 660 nM

## COc1ccc2[nH]cc(CCNC(C)=O)c2c1 [MELATONIN]
SH-SY5Y [19]
  Activity: 42.1%

## O=C(NCCC1CCN(Cc2ccccc2)CC1)c1cc(=O)c2cccc(O)c2[nH]1
In vitro
  Papp: 4.9 ×10⁻⁶ cm/s
[10]
  Ki: 290 nM
Homo sapiens [20]
  Ratio IC50: 7
[7]
  IC50: 13600 nM
[8]
  Activity (umolequiv/umol): 1
[11]
  Ki: 47.4 nM
Cholinesterase
  IC50: > 10000 nM
Homo sapiens [4]
  Ratio IC50: > 8.7
[13]
  IC50: 77600 nM
[9]
  IC50: > 100000 nM
[16]
  Ratio Ki: 6
Acetylcholinesterase [6]
  IC50: 1150 nM

## O=C(NCCC1CCN(Cc2ccccc2)CC1)c1cc(=O)c2cc(O)ccc2o1
In vitro
  Papp: 2.8 ×10⁻⁶ cm/s
SH-SY5Y [1]
  Activity: 15%
[10]
  Ki: 345 nM
SH-SY5Y [2]
  Activity: 18.8%
[7]
  IC50: 51200 nM
[8]
  Activity (umolequiv/umol): 1.2
[11]
  Ki: 42.1 nM
Cholinesterase
  IC50: > 10000 nM
SH-SY5Y [3]
  Activity: 8.6%
[21]
  inhibition: 36%
Homo sapiens [4]
  Ratio IC50: > 110
SH-SY5Y [5]
  Activity: 15.2%
[13]
  IC50: > 100000 nM
[9]
  IC50: 39300 nM
[16]
  Ratio Ki: 8
Acetylcholinesterase [6]
  IC50: 91 nM
